Reference: patent US9939427B2, “Method for evaluating the scent performance of perfumes or perfume mixtures” (Symrise AG, priority 2013, dated 2018)

Legend:
Assay type in all cases: cell-based
[1] = biological target: T1, OR10A6 (Homo sapiens, UniProt Q8NH74); assay: Ca-imaging of OR10A6-transfected HEK293 cells; design: key to OR10A6 responded to odorant: ▪: 18 olfactory receptors responded to 32 odorants in related with specific anosmia; conditions: HEK293 cells, individual odorant 200 μM, significant response p<0.05
T1 construct: specific primers, which amplify the complete open reading frame; expressed in transfected cells; host or cells: HEK293
T1 sequence (Q8NH74 1-314): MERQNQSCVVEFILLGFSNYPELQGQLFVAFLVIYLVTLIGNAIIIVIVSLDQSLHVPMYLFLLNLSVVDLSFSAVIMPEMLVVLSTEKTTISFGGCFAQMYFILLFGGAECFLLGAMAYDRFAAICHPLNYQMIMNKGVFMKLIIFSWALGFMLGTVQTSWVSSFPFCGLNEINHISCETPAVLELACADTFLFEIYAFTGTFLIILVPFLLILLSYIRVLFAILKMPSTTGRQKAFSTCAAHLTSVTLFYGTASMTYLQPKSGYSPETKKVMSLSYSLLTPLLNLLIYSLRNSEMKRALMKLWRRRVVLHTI
Method: (§1) HEK293 cells were cultivated in Petri dishes (Ø35 mm) as previously described (Benbernou et al. 2007). We grow up HEK293 cells in culture medium containing standard DMEM with 10% heat-inactivated fetal bovine serum, 2 mM L-glutamine, 100 units/ml penicillin, and 100 units/ml streptomycin in a humidified atmosphere (37° C., 5% CO2). After 2-3 days, the transfection process was carried out, whereby the cell culture was 70-80% confluent. The calciumphosphate method was applied to transfect DNA plasmid transiently in HEK293 cells in case of Ca-imaging method.
(§2) Calcium cations and phosphate anions created crystal precipitations coupled with DNA which could invade into the cells through endocytosis. Cells were transiently transfected with plasmid DNA which consists of pCI expression vector and PCR-amplified full-length cDNA of olfactory receptors candidates, and also Gα15, RTP1, Myr-Ric8A, HSC70, and m-Cherry as cofactors. The precipitation could be created after 15-20 min, with dropping the transfection solution on HEK293 cells. Before measuring by Ca-imaging cells were incubated 48-60 hours at 370 C, 5% CO2. Cationic liposome-mediated transfection method was applied to transfect DNA plasmid transiently in HANA3A cells in case of CRE-Luciferase and CRE-SEAP assays.
(§3) Calcium imaging of the transfected HEK293 cells was done by using chambers determinate an inverted microscope (Olympus; IX70) using a 10× objective (CPIanFL N Olympus). Fluorescence emission was determined every 4 s by using a CCD camera (Charge Coupled Device, C9100 Hamamatsu). The capillary tube which was responsible to supply odorants was generated closely above the cells. The columns filled with odorants, DMSO and ATP. Odorants were manually monitored to drop each 4-5 s to transfected cells. Solutions with drop wise form spread on HEK293 cells in 35 mm dishes.
(§4) In experiments, Fura-2 Acetoxymethylester (Fura-2/AM) was applied. The non-polar Fura2/AM is fluorescent but not yet calcium-sensitive. Once diffuses into cell plasma, Fura-2/AM is hydrolyzed to Fura-2 which is calcium-sensitive and functions as Ca2+ chelator. Regardless of the presence of calcium, Fura-2 emits at the wavelength of 510 nm. Once Fura-2 binds to free intracellular Ca2+ in cell plasma, its ratio of excitation at wavelengths of 340 nm and 380 nm is changed and correlated to the amount of intracellular Ca2+. According to this feature, the analysis of 340/380 nm excitation ratio for Fura-2 allows to quantify intracellular calcium levels.
(§5) In preparation for Ca-imaging measurements, transfected HEK293 cells were added 3 it Fura2/AM (3 μM) and incubated 30-45 min at 370 C, 5% CO2. After this step, experiments were carried out in a dark condition (Fura-2 is light-sensitive). After the incubation, medium of cell culture was replaced with 2 ml Ringer's solution.
(§6) Odorants were freshly prepared with DMSO as 1 M stocks solutions. Six mixtures (200 μM each chemical) were applied to cells sequentially (20 s each mixture/30 s Ringer). Those ORs tested with single odorants that had generated a response to odorant mixture group previously. Odorants were prepared in 100-200 μM concentration.
Ringer's solution was used for washing cells between measuring by two different odorants. Positive response was determined by the timing of the response, the strength of the response (more than twofold higher than the noise amplitude of the baseline), and the shape of the response curve (sharp rise in curve with gradual recovery). […]

[2] = biological target: T2, OR8D2 (Homo sapiens, UniProt Q9GZM6); assay: Ca-imaging of OR8D2-transfected HEK293 cells; conditions: odorant 200 μM, approximately 2000 transfected cells in three times of measuring (Table 4, FIG. 5)
T2 construct: specific primers, which amplify the complete open reading frame; expressed in transfected cells; host or cells: HEK293
T2 sequence (Q9GZM6 1-311): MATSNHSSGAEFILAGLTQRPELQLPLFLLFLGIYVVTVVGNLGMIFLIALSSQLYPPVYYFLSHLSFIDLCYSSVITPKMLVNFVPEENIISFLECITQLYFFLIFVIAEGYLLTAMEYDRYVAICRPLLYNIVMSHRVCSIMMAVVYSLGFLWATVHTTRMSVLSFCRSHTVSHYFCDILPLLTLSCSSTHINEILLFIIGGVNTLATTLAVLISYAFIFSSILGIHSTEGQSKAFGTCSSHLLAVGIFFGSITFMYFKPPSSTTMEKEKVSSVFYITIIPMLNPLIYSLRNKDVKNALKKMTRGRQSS
Method: as §1, §2, §3, §4, §5, §6
(§7) Ringer's solution was used for washing cells between measuring by two different odorants. Positive response was determined by the timing of the response, the strength of the response (more than twofold higher than the noise amplitude of the baseline), and the shape of the response curve (sharp rise in curve with gradual recovery). The typical shape of response curves was established by observing responses to repeated stimulation with 200 μM of odorants. After testing with single odorants at 100 μM, stimulating odorants were often retested at 200 μM concentrations. To confirm the result of every receptor that produced a significant response curves, the experiment was repeated for twelve times. Finally, cells were exposed to ATP (0.25 mM) which could activate P2Y receptor channel and induce Ca2+ influx into cells. […]

[3] = tested on: HEK293 cells transfected with all cofactors and pCI plasmids without ORs; assay: Ca-imaging of control HEK293 cells without OR; conditions: odorant 200 μM, three times of measuring (Table 4, FIG. 5)
Method: as §1, §2, §3, §4, §5, §6, §7

[4] = biological target: T3, OR4X2 (Homo sapiens, UniProt Q8NGF9); assay: Ca-imaging of OR4X2-transfected HEK293 cells; design: key to OR4X2 responded to odorant: ▪: 18 olfactory receptors responded to 32 odorants in related with specific anosmia; conditions: for Response of OR4X2 to odorant, in words: single odorants 200 μM; for Number of cell responses, Experiment (OR4X2): odorant 200 μM, approximately 2000 transfected cells in three times of measuring (Table 4, FIG. 5)
T3 construct: specific primers, which amplify the complete open reading frame; expressed in transfected cells; host or cells: HEK293
T3 sequence (Q8NGF9 1-303): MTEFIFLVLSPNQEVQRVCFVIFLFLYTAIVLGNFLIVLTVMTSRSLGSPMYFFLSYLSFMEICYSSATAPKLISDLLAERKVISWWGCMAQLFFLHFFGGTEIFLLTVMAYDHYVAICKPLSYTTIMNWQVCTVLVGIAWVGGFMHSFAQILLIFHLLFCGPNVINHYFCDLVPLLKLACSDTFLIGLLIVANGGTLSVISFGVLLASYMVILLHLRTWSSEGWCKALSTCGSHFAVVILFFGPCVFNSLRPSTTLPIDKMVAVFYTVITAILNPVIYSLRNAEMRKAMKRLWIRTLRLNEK
Method: as §1, §2, §3, §4, §5, §6, §7

[5] = biological target: T4, OR1B1 (Homo sapiens, UniProt Q8NGR6); assay: Ca-imaging of OR1B1-transfected HEK293 cells; design: key to OR1B1 responded to odorant: ▪: 18 olfactory receptors responded to 32 odorants in related with specific anosmia; conditions: Ca-imaging
T4 construct: specific primers, which amplify the complete open reading frame; expressed in transfected cells; host or cells: HEK293
T4 sequence (Q8NGR6 1-317): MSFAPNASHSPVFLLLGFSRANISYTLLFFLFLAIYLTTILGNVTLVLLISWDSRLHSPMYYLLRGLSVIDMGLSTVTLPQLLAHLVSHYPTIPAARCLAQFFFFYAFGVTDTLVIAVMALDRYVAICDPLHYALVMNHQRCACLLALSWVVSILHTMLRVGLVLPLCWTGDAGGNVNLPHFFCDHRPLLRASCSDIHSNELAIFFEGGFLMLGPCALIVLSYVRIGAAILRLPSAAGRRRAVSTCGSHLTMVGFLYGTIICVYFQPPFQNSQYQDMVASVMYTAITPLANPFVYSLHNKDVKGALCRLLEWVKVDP
Method: as §1, §2, §3, §4, §5, §6, §7

[6] = biological target: T5, OR8B4 (Homo sapiens, UniProt Q96RC9); assay: Ca-imaging of OR8B4-transfected HEK293 cells; design: key to OR8B4 responded to odorant: ▪: 18 olfactory receptors responded to 32 odorants in related with specific anosmia
T5 construct: specific primers, which amplify the complete open reading frame; expressed in transfected cells; host or cells: HEK293
T5 sequence (Q96RC9 1-309): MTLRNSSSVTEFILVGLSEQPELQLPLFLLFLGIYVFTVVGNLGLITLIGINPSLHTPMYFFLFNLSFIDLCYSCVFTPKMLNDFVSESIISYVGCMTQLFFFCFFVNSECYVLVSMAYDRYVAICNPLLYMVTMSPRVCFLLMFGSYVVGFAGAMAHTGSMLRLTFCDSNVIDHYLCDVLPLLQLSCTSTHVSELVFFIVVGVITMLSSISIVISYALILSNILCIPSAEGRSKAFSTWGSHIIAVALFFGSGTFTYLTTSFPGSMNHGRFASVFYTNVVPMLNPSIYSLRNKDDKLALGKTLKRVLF
Method: as §1, §2, §3, §4, §5, §6, §7

[7] = Ca-imaging, HEK293 cells, individual odorant 200 μM, significant response p<0.05

**Q.** For `OC/C=C/c1ccccc1` [Cinamyl alcohol, Cinamylalcohol], which “OR10A6 responded to odorant” value [1] is on record?
**A.** ▪

**Q.** With `CCCCCCCCO` [Octanol] as the compound, how does the “Number of cell responses, Experiment (OR8D2)” value [2] read?
**A.** 9

**Q.** What about the “Number of cell responses, Control” value [3] of the same compound?
**A.** 0

**Q.** How did the “OR4X2 responded to odorant” value [4, 7] turn out when `NCC(=O)c1ccccc1` [2-aminoacetophenon, 2-Aminoacetophenone] was run?
**A.** ▪

**Q.** What about the “Response of OR4X2 to odorant, in words” value ([4]; Ca-imaging) of the same compound?
**A.** could be the receptor

**Q.** What about the “Response of OR4X2 to odorant, in words” value ([4]; Ca-imaging, listed as 2-aminoacetophenone) of the same compound?
**A.** responded

**Q.** What about the “Number of cell responses, Experiment (OR4X2)” value [4] of the same compound?
**A.** 20

**Q.** `Cc1ccc2c(c1)OCC(=O)CO2` [calone, Calone] was tested. Which “OR1B1 responded to odorant” value ([5]; HEK293 cells, individual odorant 200 μM, significant response p<0.05) did it give?
**A.** ▪

**Q.** What about the “Response of OR1B1 to odorant, in words” value ([5]; single odorants 200 μM) of the same compound?
**A.** significantly (P<0.05) activated

**Q.** And the “Number of cell responses, Control” value [3]?
**A.** 0

**Q.** Which “OR8B4 responded to odorant” value [6, 7] does the source give for `CCCCCC=O` [Aldehyde C6, Aldehyd C6] here?
**A.** ▪

**Q.** What about the “Response of OR8B4 to odorant, in words” value ([6]; Ca-imaging, single odorants 200 μM) of the same compound?
**A.** responded significantly

**Q.** What about the “Number of cell responses (OR8B4)” value ([6]; odorant 200 μM, approximately 2000 transfected cells in three times of measuring (FIG. 5)) of the same compound?
**A.** 8

**Q.** What about the “Number of cell responses, Experiment (OR4X2)” value [4] of the same compound?
**A.** 8

**Q.** And the “Number of cell responses, Control” value [3]?
**A.** 0
